Assay results reported in US9096539B2, “Substituted 4,5-dihydro-2H-benzo[e]indazole-9-carboxylates for the treatment of diabetes and related disorders” (Council of Scientific & Industrial Research, priority 2012, dated 2015).
Like-named read-outs stand apart in the source and are kept apart here.

Key:
[1] = target: T1, human recombinant PTP1B enzyme (Homo sapiens, UniProt P18031); test: Protein tyrosine phosphatase-1B assay (colorimetric kit BML-AK 822); assay type: biochemical; conditions: for inhibition at 0.3 µM: read-out: % Inhibition at different Inhibitor concentration 0.3 μM; for inhibition at 1 µM: read-out: % Inhibition at different Inhibitor concentration 1 μM; for inhibition at 3 µM: read-out: % Inhibition at different Inhibitor concentration 3 μM; for inhibition at 5 µM: read-out: % Inhibition at different Inhibitor concentration 5 μM; for IC50: from % inhibition at 5 concentrations 0.3-10 μM
T1 construct: purchased Enzo Life Sciences, USA BML-AK 822
T1 sequence (P18031 1-322 limits assumed): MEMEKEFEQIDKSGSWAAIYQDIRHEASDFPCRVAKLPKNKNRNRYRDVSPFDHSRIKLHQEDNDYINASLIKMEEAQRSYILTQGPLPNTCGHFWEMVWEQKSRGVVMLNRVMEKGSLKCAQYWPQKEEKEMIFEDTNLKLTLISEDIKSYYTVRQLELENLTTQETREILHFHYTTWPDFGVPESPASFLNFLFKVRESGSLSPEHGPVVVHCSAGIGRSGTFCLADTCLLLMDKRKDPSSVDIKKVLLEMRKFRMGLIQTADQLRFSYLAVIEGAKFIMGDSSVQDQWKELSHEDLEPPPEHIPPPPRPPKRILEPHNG
Protocol: Assay was done according to the Kit manufacturers protocol, in brief the reaction was carried out in 96 well flat bottomed microtiter plate by the addition of assay buffer, solution of test compounds and diluted PTP1B enzyme. Enzyme reaction was initiated by addition of 50 μl of warmed 2× substrate then incubated the plate at 30° C. for 30 min. After incubation for 30 min. Reaction was terminated by addition of 25 μl of biomol red reagent and mixed thoroughly by repeated pipetting. […] Volumes and dilution of other component were accordingly as instructed in the manual provided in the kit. PTP1B phosphatase acting on the phosphopeptide substrate and release phosphate. The detection of free phosphate released is based on classic Malachite green assay. After adding biomol red to reaction wells after 30 minutes of incubation as described earlier the plate was incubated for another 20 min to develop the colour. Absorbance was recorded at 620 nm. on a microplate reader.

[2] = system: sucrose loaded normoglycaemic rats; test: Antihyperglycaemic activity on sucrose loaded normoglycaemic rats (SLM); assay type: in vivo, rat; conditions: for Blood Glucose Profile 0 min: 0 min (fasting baseline); for Blood Glucose Profile 0 min / Blood Glucose Profile 30 min / Blood Glucose Profile 60 min / Blood Glucose Profile 90 min / Blood Glucose Profile 120 min / % Antihyperglycaemic activity SLM: sucrose loaded normoglycaemic rats, compounds 100 mg/kg, Januvia 50 mg/kg; for Blood Glucose Profile 0 min / Blood Glucose Profile 30 min / Blood Glucose Profile 60 min / Blood Glucose Profile 90 min / Blood Glucose Profile 120 min: mean ± S.E.; for Blood Glucose Profile 30 min: 30 min post sucrose; for Blood Glucose Profile 60 min: 60 min post sucrose; for Blood Glucose Profile 90 min: 90 min post sucrose; for Blood Glucose Profile 120 min: 120 min post sucrose; for % Antihyperglycaemic activity SLM: AUC vs control, oral; for improvement in glucose tolerance: sucrose loaded normoglycemic rats, 100 mg/kg b.w., result in words
Protocol: The test compounds and standard antidiabetic drug Januvia were prepared in 1.0% freshly prepared Gum acacia.
Assessment of Test Compounds for Antihyperglycaemic Activity on Sucrose Loaded Normoglycaemic Rats—
In order to search towards the antidiabetic activity, synthetic compounds were preliminary evaluated for their effect on glucose tolerance in normal rats. It is an indirect effect of measuring antihyperglycaemic activity. Male albino rats of Wistar strain of body weight 160±20 g were selected for this study. The blood glucose of each animal was checked by glucometer using glucostrips (Accu-check) after 16 hours starvation. Animals showing blood glucose between 60 to 80 mg/dl (3.33 to 4.44 mM) were divided into groups of five to six animals in each. Rats of experimental group were administered suspension of the desired test compound orally (made in 1.0% gum acacia). The standard dose decided for Synthetic compounds is 100 mg/kg body weight. Animals of control group were given an equal amount of 1.0% gum acacia. A sucrose load (10.0 g/kg) was given to each animal orally exactly after 30 min post administration of the test sample/vehicle. Blood glucose profile of each rat was again determined at 30, 60, 90 and 120 min post administration of sucrose by glucometer. Food but not water was withheld from the cages during the course of experimentation. Quantitative glucose tolerance of each animal was calculated by area under curve (AUC) method using Prism Software. Comparing the AUC of experimental and control groups determined the percentage antihyperglycaemic activity. Statistical comparison was made by Dunnett's test.
Quantitative glucose tolerance of each animal was calculated by the area under the curve (AUC) method using Prism Software. The area under the curve of the control group and the experimental group was compared to determine the percent antihyperglycaemic activity. Statistical comparisons were performed by one-way analysis of variance (ANOVA), followed by Dunnett's multiple range test (DMRT). The results were considered statistically significant if the ‘p’ values were 0.05 or less. Results were expressed as mean±SEM.

[3] = system: sucrose challenged STZ induced diabetic rats; test: Antihyperglycaemic activity in sucrose challenged streptozotocin (STZ)-induced diabetic rats (STZ-S); assay type: in vivo, rat; conditions: compounds 100 mg/kg, Januvia 50 mg/kg; for % Antihyperglycaemic activity STZ-S 0-5 h AUC / % Antihyperglycaemic activity STZ-S 0-24 h AUC: oral; for Blood Glucose Profile 0 min (Pre treatment): 0 min pre treatment (fasting baseline)
Protocol: The test compounds and standard antidiabetic drug Januvia were prepared in 1.0% freshly prepared Gum acacia. Assessment of Test Compounds for Antihyperglycaemic Activity in Sucrose Challenged Streptozotocin STZ-Induced Diabetic Rats— Induction of Diabetes in Rats: Overnight starved male albino rats of Sprague Dawley strain were used and Diabetes was induced in the animals by single intraperitoneal injection of Streptozotocin at 60 mg/kg body weight dose prepared in 0.1M citrate buffer (pH 4.5). Fasting blood glucose level was measured by using a Glucometer (ACCU-CHEK II; […] Grouping and Treatment: […] All the diabetic animals were again divided into groups with five animals in each group. Animals of one group were regarded as the control group (orally administered 1% gum acacia) and the others were treated as the experimental groups. […] Animals of the control group were given an equal amount of 1.0% gum acacia. The standard antidiabetic drug Januvia was given to the animals at an oral dose of 50 mg/kg body weight. […] Food but not water was withheld from the cages during the course of experimentation. Percent hyperglycemic activity was determined by comparing the AUC (area under curve) of experimental groups with that of the vehicle treated control group. Quantitative glucose tolerance of each animal was calculated by the area under the curve (AUC) method using Prism Software. The area under the curve of the control group and the experimental group was compared to determine the percent antihyperglycaemic activity. Statistical comparisons were performed by one-way analysis of variance (ANOVA), followed by Dunnett's multiple range test (DMRT). […] Results were expressed as mean±SEM.

[4] = Table 5, evaluated at 10 μM concentration, read-out: % Inhibition (PTP-1B)
[5] = Table 6 dose response, 10 μM, read-out: % Inhibition at different Inhibitor concentration 10 μM

Work on `COC(=O)c1c(SC)cc(-c2ccc(C)cc2)c2c1-c1cn(-c3ccccc3)nc1CC2` [compound 5, methyl 8-(methylthio)-2-phenyl-6-p-tolyl-4,5-dihydro-2H-benzo[e]indazole-9-carboxylate] yielded a melting point of 178 to 180 °C, an inhibition at 10 µM [1, 4] of 83.8% and an inhibition at 0.3 µM ([1]; Table 6 dose response) of 3.89%. For the same compound, the inhibition at 1 µM ([1]; Table 6 dose response) was 13.2%, the inhibition at 3 µM ([1]; Table 6 dose response) was 24.1% and the inhibition at 5 µM ([1]; Table 6 dose response) was 36.7%. The inhibition at 10 µM [1, 5] was 67.8%, the IC50 [1] was 7.12 µM and the “Blood Glucose Profile 0 min” value [2] was 66.2 ± 3.05 mg/dL. The “Blood Glucose Profile 30 min” value [2] was 107.4 ± 7.76 mg/dL, the “Blood Glucose Profile 60 min” value [2] was 104.8 ± 5.12 mg/dL and the “Blood Glucose Profile 90 min” value [2] was 108.3 ± 3.59 mg/dL. For the same compound, the “Blood Glucose Profile 120 min” value [2] was 109.8 ± 7.86 mg/dL, the “% Antihyperglycaemic activity SLM” value [2] was 35.8% and the “improvement in glucose tolerance” value [2] was “significant improvement in glucose tolerance”. The “% Antihyperglycaemic activity STZ-S 0-5 h AUC” value [3] was 20.4%, the “% Antihyperglycaemic activity STZ-S 0-24 h AUC” value [3] was 23.6% and the “Blood Glucose Profile 0 min (Pre treatment)” value [3] was 222.3 ± 9.39 mg/dL. For the same compound, the “Blood Glucose Profile 30 min (Post treatment)” value [3] was 515.6 ± 15.5 mg/dL, the “Blood Glucose Profile 60 min (Post treatment)” value [3] was 528.6 ± 14.4 mg/dL and the “Blood Glucose Profile 90 min (Post treatment)” value [3] was 506.5 ± 14.0 mg/dL. The “Blood Glucose Profile 120 min (Post treatment)” value [3] was 459.6 ± 11.2 mg/dL, the “Blood Glucose Profile 180 min (Post treatment)” value [3] was 402.1 ± 5.58 mg/dL and the “Blood Glucose Profile 240 min (Post treatment)” value [3] was 332.5 ± 15.6 mg/dL. For the same compound, the “Blood Glucose Profile 300 min (Post treatment)” value [3] was 284.3 ± 16.9 mg/dL and the “Blood Glucose Profile 1440 min (Post treatment)” value [3] was 411.1 ± 13.6 mg/dL.
`COC(=O)c1c(SC)cc(-c2cccc3ccccc23)c2c1-c1cn(-c3ccccc3)nc1CC2` [compound 6, methyl 8-(methylthio)-6-(naphthalen-1-yl)-2-phenyl-4,5-dihydro-2H-benzo[e]indazole-9-carboxylate] showed a melting point of 182 to 184 °C, an inhibition at 10 µM [1, 4] of 76.9% and an inhibition at 0.3 µM ([1]; Table 6 dose response) of 0.5%. It also gave an inhibition at 1 µM ([1]; Table 6 dose response) of 11.2%, an inhibition at 3 µM ([1]; Table 6 dose response) of 16.2% and an inhibition at 5 µM ([1]; Table 6 dose response) of 28.8%. For the same compound, the inhibition at 10 µM [1, 5] was 62.3%, the IC50 [1] was 8.12 µM and the “Blood Glucose Profile 0 min” value [2] was 66.2 ± 2.63 mg/dL. For the same compound, the “Blood Glucose Profile 30 min” value [2] was 120.0 ± 7.30 mg/dL, the “Blood Glucose Profile 60 min” value [2] was 111.2 ± 7.30 mg/dL and the “Blood Glucose Profile 90 min” value [2] was 110.4 ± 4.73 mg/dL. The “Blood Glucose Profile 120 min” value [2] was 107.4 ± 4.95 mg/dL, the “% Antihyperglycaemic activity SLM” value [2] was 23.5% and the “improvement in glucose tolerance” value [2] was “significant improvement in glucose tolerance”. For the same compound, the “% Antihyperglycaemic activity STZ-S 0-5 h AUC” value [3] was 29.7%, the “% Antihyperglycaemic activity STZ-S 0-24 h AUC” value [3] was 25.7% and the “Blood Glucose Profile 0 min (Pre treatment)” value [3] was 222.6 ± 6.55 mg/dL. For the same compound, the “Blood Glucose Profile 30 min (Post treatment)” value [3] was 442.1 ± 18.2 mg/dL, the “Blood Glucose Profile 60 min (Post treatment)” value [3] was 520.0 ± 10.3 mg/dL and the “Blood Glucose Profile 90 min (Post treatment)” value [3] was 464.0 ± 14.4 mg/dL. For the same compound, the “Blood Glucose Profile 120 min (Post treatment)” value [3] was 399.3 ± 14.0 mg/dL, the “Blood Glucose Profile 180 min (Post treatment)” value [3] was 334.0 ± 13.4 mg/dL and the “Blood Glucose Profile 240 min (Post treatment)” value [3] was 301.6 ± 18.8 mg/dL. For the same compound, the “Blood Glucose Profile 300 min (Post treatment)” value [3] was 277.0 ± 10.1 mg/dL and the “Blood Glucose Profile 1440 min (Post treatment)” value [3] was 405.0 ± 17.6 mg/dL.
